Molecular target: T1, casein kinase 1ε (Homo sapiens, UniProt P49674)
T1 construct: made in house
Test: Casein Kinase Epsilon 33P-ATP Filter Plate Assay for Screening CK1ε Inhibitors
Assay type: biochemical
Description: Casein Kinase Epsilon ^33P-ATP Filter Plate Assay for Screening CK1ε Inhibitors
Purpose: This assay measures the ability of compounds to inhibit the phosphorylation of the substrate casein by the enzyme casein kinase 1ε using an in vitro ^33P-ATP filtration assay.
The above are stored as 100 μL aliquots at minus 80° C. • Compounds: • Supply compounds for testing as frozen 10 mM compound stock dissolved in 100% DMSO. Assay Conditions: • Final total assay volume per well is equal to 50 μL that one prepares as follows: • 5 μL of diluted compound stock (10, 1, 0.1, 0.01 or 0.001 μM), • 5 μL of dephosphorylated casein final concentration 0.2 μg/μL, • 20 μL of CK1ε final concentration 3 ng/μL, and • 20 μL of γ-^33P-ATP final concentration 0.02 μCi/μL mixed with cold ATP (10 μM final). Methodology: • 1. Prepare 500 mL of fresh assay buffer: 50 mM Tris pH 7.5, 10 nm MgCl2, 2 mM DTT and 1 mM EGTA • 2. Obtain compounds to be evaluated as 10 μL of 10 mM stock dissolved in 100% DMSO. Use a Biomek 2000 liquid handling robot, make serial dilutions to yield 10, 1, 0.1, 0.01 and 0.001 μM final compound dilutions added as 5 μL additions to Falcon U bottom plates. […] A routine screening assay will consist of 32 compounds, which equals 4 assay plates. • 3.
• 4. Add 5 μL of compound as indicated, then add 5 μL of dephosphorylated casein (dissolved in distilled H20) (0.2 μg/μL) and 20 μL CK1ε (3 ng/μL) to the appropriate wells. • 5. Finally add 20 μL γ-^33P-ATP (0.02 μCi/μL)/10 μM cold ATP (equals approximately 2×10^6 CPM per well). • 6. Vortes the Falcon U-Bottom assay plate containing the above 50 μL reaction volume and then incubate at room temperature for 2 hours. • 7. At the end of 2 hours, stop the reaction by the addition of 65 μL of ice cold 2 mM cold ATP (made up in assay buffer) to the assay plates using a Beckman Multimek. • 8. At the same time add 25 μL 100% ice cold TCA made up in distilled H20 to a matching number of Millipore MAPH filter plates. • 9. Using a handheld 8-channel pipettor, transfer 100 μL of the reaction mixture from the Falcon U-Bottom Plate to the Millipore MAPH filter plates presoaked with TCA. • 10. Mix the Millipore MAPH filter plates gently and allow to sit at room temperature for at least 30 minutes to precipitate the proteins. • 11. After 30 minutes, place the filter plates on a Millipore vacuum manifold and filter at no more than 8 mm Hg as the MAPH filters tend to “air lock” at higher vacuum settings. • 12. […] Allow the plates to dry overnight at room temperature. The next day add 40 μL Packard Microscint-20 Scintillation Fluid per well using a Titertek Multidrop dispenser; seal the plates and count for 2 minutes/well in a Packard Topcount NXT Scintillation Counter (to provide CPM values/well). Calculation: • 1. Import Counts Per Minute (CPM) data into a proprietary data calculation and archiving database (Activity Base by IDBS version 5.0). • 2. Column 1 for each plate reflects total phosphorylation activity of the enzyme in the absence of any inhibiting compound and thus represents 100%. Column 12 reflects any nonspecific phosphorylation/retained radioactivity activity in the absence of inhibiting compound and enzyme. Typically one observes approximately 1% of Total CPMs that are “nonspecific”. • 3.

T1 sequence (P49674 whole entry): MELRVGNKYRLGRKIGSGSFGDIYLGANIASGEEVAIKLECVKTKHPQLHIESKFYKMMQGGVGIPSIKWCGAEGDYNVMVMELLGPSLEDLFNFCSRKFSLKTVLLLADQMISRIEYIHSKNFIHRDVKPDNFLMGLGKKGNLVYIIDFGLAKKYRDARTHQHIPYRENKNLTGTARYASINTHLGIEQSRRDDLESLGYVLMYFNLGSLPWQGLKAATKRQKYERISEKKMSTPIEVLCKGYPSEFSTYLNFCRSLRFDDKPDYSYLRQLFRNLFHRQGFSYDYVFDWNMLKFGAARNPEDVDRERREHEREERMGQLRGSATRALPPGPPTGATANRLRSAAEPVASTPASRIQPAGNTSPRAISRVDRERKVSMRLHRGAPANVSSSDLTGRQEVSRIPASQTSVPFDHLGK

| Ki [nM] | Compound |
| --- | --- |
| 93 | CCCCNCc1ccc2[nH]c(C(N)=O)c(Sc3ccccc3)c2c1 [Ik, 5-Butylaminomethyl-3-phenylsulfanyl-1H-indole-2-carboxylic acid amide] |
| 810 | Cc1ccc(CNCc2ccc3c(Sc4ccccc4)c(C(N)=O)[nH]c3c2)cc1 [IIf, 6-[(4-Methylbenzylamino)methyl]-3-phenylsulfanyl-1H-indole-2-carboxylic acid amide] |
| 1770 | NC(=O)c1[nH]c2cc(CNCc3ccccc3[N+](=O)[O-])ccc2c1Sc1ccccc1 [IIl, 6-[(2-Nitrobenzylamino)methyl]-3-phenylsulfanyl-1H-indole-2-carboxylic acid amide] |
| > 10000 | COc1cc(C#N)c(NCc2ccc3[nH]c(C(N)=O)c(Sc4ccccc4)c3c2)cc1OC [Iab, 5-[(2-Cyano-4,5-dimethoxyphenylamino)methyl]-3-phenylsulfanyl-1H-indole-2-carboxylic acid amide] |
| 540 | CC(C)NCc1ccc2[nH]c(C(N)=O)c(Sc3ccccc3)c2c1 [Iaj, 5-(Isopropylaminomethyl)-3-phenylsulfanyl-1H-indole-2-carboxylic acid amide] |
| 1210 | NC(=O)c1[nH]c2cc(CNCc3ccc([N+](=O)[O-])s3)ccc2c1Sc1ccccc1 [IIal, 6-{[(5-Nitrothiophen-2-ylmethyl)amino]methyl}-3-phenylsulfanyl-1H-indole-2-carboxylic acid amide] |
| 120 | NCC(=O)NCc1ccc2c(Sc3ccccc3)c(C(N)=O)[nH]c2c1 [IIp, 6-[(2-Aminoacetylamino)methyl]-3-phenylsulfanyl-1H-indole-2-carboxylic acid amide] |
| 4040 | NC(=O)c1[nH]c2cc(CNCc3cccc(C(F)(F)F)c3F)ccc2c1Sc1ccccc1 [IIab, 6-[(2-Fluoro-3-trifluoromethylbenzylamino)methyl]-3-phenylsulfanyl-1H-indole-2-carboxylic acid amide] |
| 240 | COc1ccccc1CNCc1ccc2c(Sc3ccccc3)c(C(N)=O)[nH]c2c1 [IIac, 6-[(2-Methoxybenzylamino)methyl]-3-phenylsulfanyl-1H-indole-2-carboxylic acid amide] |
| 700 | NC(=O)c1[nH]c2cc(CNCc3ccc([N+](=O)[O-])o3)ccc2c1Sc1ccccc1 [IIau, 6-{[(5-Nitrofuran-2-ylmethyl)amino]methyl}-3-phenylsulfanyl-1H-indole-2-carboxylic acid amide] |
| 2230 | COc1cccc(NCc2ccc3[nH]c(C(N)=O)c(Sc4ccccc4)c3c2)c1 [Iag, 5-[(3-Methoxyphenylamino)methyl]-3-phenylsulfanyl-1H-indole-2-carboxylic acid amide] |
| 720 | NC(=O)c1[nH]c2cc(CNCc3ccccc3)ccc2c1Sc1ccccc1 [IIc, 6-(Benzylaminonmethyl)-3-phenylsulfanyl-1H-indole-2-carboxylic acid amide] |
| 1280 | NC(=O)c1[nH]c2cc(CNC(=O)[C@@H](N)Cc3ccccc3)ccc2c1Sc1ccccc1 [IIt, 6-[(2-Amino-3-phenylpropionylamino)methyl]-3-phenylsulfanyl-1H-indole-2-carboxylic acid amide] |
| 1190 | NC(=O)c1[nH]c2cc(CNCc3cccc([N+](=O)[O-])c3)ccc2c1Sc1ccccc1 [IIk, 6-[(3-Nitrobenzylamino)methyl]-3-phenylsulfanyl-1H-indole-2-carboxylic acid amide] |
| 4280 | CCCCc1ccc(NCc2ccc3[nH]c(C(N)=O)c(Sc4ccccc4)c3c2)cc1 [Iah, 5-[(4-Butylphenylamino)methyl]-3-phenylsulfanyl-1H-indole-2-carboxylic acid amide] |
| 780 | NC(=O)c1[nH]c2cc(CNC(=O)C(N)CC(=O)O)ccc2c1Sc1ccccc1 (stereo not shown) [IIae, 3-Amino-N-(2-carbamoyl-3-phenylsulfanyl-1H-indol-6-ylmethyl)succinamic acid] |
| 390 | NC(=O)c1[nH]c2cc(CNCc3ccc(Cl)cc3)ccc2c1Sc1ccccc1 [IIi, 6-[(4-Chlorobenzylamino)methyl]-3-phenylsulfanyl-1H-indole-2-carboxylic acid amide] |
| 1190 | NC(=O)c1[nH]c2cc(CNCc3cccc(Oc4ccccc4)c3)ccc2c1Sc1ccccc1 [IIx, 6-[(3-Phenoxybenzylamino)methyl]-3-phenylsulfanyl-1H-indole-2-carboxylic acid amide] |
| 1010 | COc1ccc2ccccc2c1CNCc1ccc2c(Sc3ccccc3)c(C(N)=O)[nH]c2c1 [IIv] |
| 110 | NCCCC[C@H](N)C(=O)NCc1ccc2c(Sc3ccccc3)c(C(N)=O)[nH]c2c1 [IIad, 6-[(2,6-Diaminohexanoylamino)methyl]-3-phenylsulfanyl-1H-indole-2-carboxylic acid amide] |
| 90 | CCNCc1ccc2[nH]c(C(N)=O)c(Sc3ccccc3)c2c1 [Iad, 5-Ethylaminomethyl-3-phenylsulfanyl-1H-indole-2-carboxylic acid amide] |
| 740 | NC(=O)c1[nH]c2cc(CNCc3ccc(Br)cc3)ccc2c1Sc1ccccc1 [IIh, 6-[(4-Bromobenzylamino)methyl]-3-phenylsulfanyl-1H-indole-2-carboxylic acid amide] |
| 4880 | NC(=O)c1[nH]c2cc(CNCc3ccc(C(F)(F)F)cc3)ccc2c1Sc1ccccc1 [IIm, 3-Phenalsulfanyl-6-[(4-trifluoromethylbenzylamino)methyl]-1H-indole-2-carboxylic acid amide] |
| 4450 | CNCc1ccc2c(c1)c(Sc1ccccc1)c(C(N)=O)n2C [Ig, 1-Methyl-5-methylaminomethyl-3-phenylsulfanyl-1H-indole-2-carboxylic acid amide] |
| 4990 | NC(=O)c1[nH]c2cc(CNCc3cc(F)cc(C(F)(F)F)c3)ccc2c1Sc1ccccc1 [IIn, 6-[(3-Fluoro-5-trifluoromethylbenzylamino)methyl]-3-phenylsulfanyl-1H-indole-2-carboxylic acid amide] |
| 2540 | NC(=O)c1[nH]c2cc(CNCc3ccc(-c4ccccc4Cl)o3)ccc2c1Sc1ccccc1 [IIar, 6-({[5-(2-Chlorophenyl)-furan-2-ylmethyl]amino}methyl)-3-phenylsulfanyl-1H-indole-2-carboxylic acid amide] |
| 390 | CC(NCc1ccc2[nH]c(C(N)=O)c(Sc3ccccc3)c2c1)C(N)=O (stereo not shown) [Iaf, 5-[(1-Carbamoylethylamino)methyl]-3-phenylsulfanyl-1H-indole-2-carboxylic acid amide] |
| 600 | NC(=O)c1[nH]c2ccc(CNc3ccc4ncccc4c3)cc2c1Sc1ccccc1 [Iu, 3-Phenylsulfanyl-5-(quinolin-6-ylaminomethyl)-1H-indole-2-carboxylic acid amide] |
| 2420 | COC(=O)c1ccc(CNCc2ccc3c(Sc4ccccc4)c(C(N)=O)[nH]c3c2)cc1 [IIam, 4-{[(2-Carbamoyl-3-phenylsulfanyl-1H-indol-6-ylmethyl)amino]methyl}benzoic acid methyl ester] |
| 290 | COc1ccc(CNCc2ccc3c(Sc4ccccc4)c(C(N)=O)[nH]c3c2)c(OC)c1 [IIw, 6-[(2,4-Dimethoxybenzylamino)methyl]-3-phenylsulfanyl-1H-indole-2-carboxylic acid amide] |

| Compound | Ki [nM] |
| --- | --- |
| NC(=O)c1[nH]c2cc(CN(Cc3ccc([N+](=O)[O-])o3)Cc3ccc([N+](=O)[O-])o3)ccc2c1Sc1ccccc1 [IIat, 6-{[Bis-(5-nitrofuran-2-ylmethyl)amino]methyl}-3-phenylsulfanyl-1H-indole-2-carboxylic acid amide] | > 10000 |

From patent US7629376B2, “3-substituted-5- and 6-aminoalkyl indole-2-carboxylic acid amides and related analogs as inhibitors of casein kinase I” (Aventis Pharmaceuticals Inc., priority 2004, dated 2009)
